Test results taken from patent publication US20250163006A1, “New Coolants, and Preparations Containing Same” (Symrise AG, priority 2022, published 2025).

Biological target: T1, human TRPM8 receptor (Homo sapiens, UniProt Q7Z2W7)
T1 construct: expressed in transfected cells; host or cells: HEK293, stably transfected, tetracycline-inducible expression
Assay: Assay on TRPM8 modulators: Ca2+-sensitive dye (Fluo-4) fluorescence in HEK293-TRPM8 test cells
Format: cell-based
Parameters: relative TRPM8 activation: concentration or dose not given beside the values
Conditions: HEK293 cells recombinantly expressing human TRPM8
Text: The starting point for cloning the human TRPM8 receptor is an LnCaP cDNA bank. This is commercially available (e.g. BioChain, Hayward, USA) or can be produced from the andro gene-sensitive human prostate adenocarcinoma cell line LnCaP (e.g. ATCC, CRL1740 or ECACC, 891 1021 1) using standard kits.
The coding TRPM8 sequence (see e.g. http://www. ncbi.nlm.nih.gov/entrez/viewer.fcgi?db=nuccore&id=109689694) can be PCR-amplified and cloned using standard methods. The human TRPM8 gene isolated in this way was used to produce the plasmid plnd_M8. Alternatively, the TRPM8 gene can also be produced synthetically.
A stably transfected HEK293 cell line was produced as a test cell system using human TRPM8 DNA. Preference was given to HEK293, which offers the possibility of inducing TRPM8 expression using tetracycline via the plasmid introduced.
A test similar to the test already described in the literature by Behrendt H. J. et al, Br. J. Pharmacol. 141, 2004, 737-745, is performed. The agonization or antagonization of the receptor can be quantified using a Ca^2+-sensitive dye (e.g. FURA, Fluo-4 etc.). Agonists alone cause an increase in the Ca^2+ signal; antagonists cause a reduction in the Ca^2+ signal in the presence of e.g. menthol (detected in each case using the Fluo-4 dye, which has different fluorescence properties due to Ca^2+ ions).
First, a fresh culture of transformed HEK cells is prepared in cell culture flasks in the usual way. The HEK293-TRPM8 test cells are detached from the cell culture flasks using trypsin and 40,000 cells/well are seeded with 100 μl medium in 96-well plates (Greiner #655948 poly-D-lysine-coated). To induce the TRPM8 receptor, tetracycline is added to the growth medium (DMEM/HG, 10% FCS tetracycline-free, 4 mM L-glutamine, 15 μg/ml blasticidin, 100 μg/ml hygromycin B, 1 μg/ml tetracycline).
On the following day, the cells are loaded with Fluo-4AM dye and the test is performed. Proceed as follows: Addition of 100 μl/well staining solution Ca-4 kit (RB 141, Molecular Devices) to each 100 μl medium (DMEM/HG, 10% FCS tetracycline-free, 4 mM L-glutamine, 15 μg/ml blasticidin, 100 μg/ml hygromycin B, 1 μg/ml tetracycline).
Incubation in incubator, 30 minutes/37° C./5% CO2, 30 minutes/RT.
Preparation of the test substances (different concentrations in 200 μl HBSS buffer), as well as positive controls (different concentrations of menthol, icilin or lonomycin in 200 μl HBSS buffer) and negative controls (only 200 μl HBSS buffer) Addition of the test substances in quantities of 50 μl/well and measurement of the fluorescence change (e.g. in the assay device FLIPR, Molecular Devices or NovoStar, BMG) at 485 nm excitation, 520 nm emission, and evaluation of the potency of the different substances/concentrations and determination of the ECG. e.g. in the FLIPR assay device, Molecular Devices or NovoStar, BMG) at 485 nm excitation, 520 nm emission, and evaluation of the potency of the various substances/concentrations and determination of the EC50 values.
The test substances are used in triplicates in concentrations of 0.1-200 μM in the assay. Normally, the compounds are kept ready in DMSO solutions and diluted down to a maximum DMSO concentration of 2% for the assay.
The activity of the active substances in relation to activation of the TRPM8 channel is determined using the assay described. This is done in a concentration-dependent manner. For each active substance, 6 to 10 concentrations are measured as standard. A mathematical method (4-parameter or 5-parameter logistic curve fitting) can be used to determine the EC50 value as the inflection point of the sigmoidal curve from the activity values determined. These are standard biochemical methods that are familiar to experts.

T1 sequence (Q7Z2W7 whole entry): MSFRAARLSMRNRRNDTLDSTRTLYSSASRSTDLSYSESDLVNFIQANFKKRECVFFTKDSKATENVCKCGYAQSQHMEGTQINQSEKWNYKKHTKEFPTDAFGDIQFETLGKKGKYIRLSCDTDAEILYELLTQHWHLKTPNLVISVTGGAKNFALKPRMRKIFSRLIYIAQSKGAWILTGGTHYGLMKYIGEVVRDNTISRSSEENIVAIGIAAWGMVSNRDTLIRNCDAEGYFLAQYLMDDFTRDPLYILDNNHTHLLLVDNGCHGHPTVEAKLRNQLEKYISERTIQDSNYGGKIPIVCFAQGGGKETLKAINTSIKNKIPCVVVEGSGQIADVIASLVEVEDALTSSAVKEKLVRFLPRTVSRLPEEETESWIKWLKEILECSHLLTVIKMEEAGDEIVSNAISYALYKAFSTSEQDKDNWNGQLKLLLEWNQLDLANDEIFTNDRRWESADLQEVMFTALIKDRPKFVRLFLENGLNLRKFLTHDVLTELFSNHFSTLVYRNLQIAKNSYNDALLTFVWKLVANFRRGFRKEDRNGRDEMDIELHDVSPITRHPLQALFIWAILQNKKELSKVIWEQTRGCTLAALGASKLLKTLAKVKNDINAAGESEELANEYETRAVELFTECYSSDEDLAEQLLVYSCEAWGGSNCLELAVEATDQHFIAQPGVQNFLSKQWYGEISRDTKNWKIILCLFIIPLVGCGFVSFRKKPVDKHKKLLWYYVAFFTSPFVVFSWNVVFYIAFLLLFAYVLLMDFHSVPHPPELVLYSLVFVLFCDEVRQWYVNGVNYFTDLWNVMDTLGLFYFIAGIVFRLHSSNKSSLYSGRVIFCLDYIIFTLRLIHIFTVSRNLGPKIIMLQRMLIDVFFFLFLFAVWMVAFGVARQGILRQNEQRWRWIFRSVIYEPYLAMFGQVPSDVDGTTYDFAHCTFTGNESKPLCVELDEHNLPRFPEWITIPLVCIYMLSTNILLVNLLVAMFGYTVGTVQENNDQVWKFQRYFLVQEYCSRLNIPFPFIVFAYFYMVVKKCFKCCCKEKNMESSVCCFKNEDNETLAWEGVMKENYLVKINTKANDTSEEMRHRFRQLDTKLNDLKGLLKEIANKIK

Question: Which “relative TRPM8 activation” value does the source give for CNC(=O)C(C)Sc1ncco1 (stereo not drawn) [Compound A-50, N-methyl-2-oxazol-2-ylsulfanyl-propanamide] here?
Answer: Its value is 1%.

Question: For CC(C)C(=O)CSc1nc(-c2ccccc2)c(-c2ccccc2)o1 [Compound A-51, 1-(4,5-diphenyloxazol-2-yl)sulfanyl-3-methyl-butan-2-one], which “relative TRPM8 activation” value is on record?
Answer: Its value is 1%.

Question: How did the “relative TRPM8 activation” value turn out when CCCC(C)NC(=O)CSc1nc(-c2ccccc2)c(-c2ccccc2)o1 (stereo not drawn) [Compound A-52, 2-(4,5-diphenyloxazol-2-yl)sulfanyl-N-(1-methylbutyl) acetamide] was run?
Answer: Its value is 1%.

Question: With COCCNC(=O)CSc1nc(-c2ccccc2)c(-c2ccccc2)o1 [Compound A-53, 2-(4,5-diphenyloxazol-2-yl)sulfanyl-N-(2-methoxyethyl) acetamide] as the compound, how does the “relative TRPM8 activation” value read?
Answer: The value was 1%.

Question: Which “relative TRPM8 activation” value does the source give for c1ccc(CSc2nc(-c3ccccc3)c(-c3ccccc3)o2)cc1 [Compound A-54, 2-benzylsulfanyl-4,5-diphenyl-oxazole] here?
Answer: The value was 1%.

Question: With Cc1nc(SC(C)C(=O)NC2CC2)[nH]c1C (stereo not drawn) [Compound A-56, N-cyclopropyl-2-[(4,5-dimethyl-1H-imidazol-2-yl)sulfanyl] propanamide] as the compound, how does the “relative TRPM8 activation” value read?
Answer: The value was 1%.

Question: With CC(=O)OCCSc1nc(-c2ccccc2)c(-c2ccccc2)o1 [Compound A-57, 2-(4,5-diphenyloxazol-2-yl)sulfanylethyl acetate] as the compound, how does the “relative TRPM8 activation” value read?
Answer: The value was 1%.

Question: How did the “relative TRPM8 activation” value turn out when COc1ccc(-c2nc(SCC(=O)NC3CC3)oc2-c2ccc(OC)cc2)cc1 [Compound A-58, 2-[4,5-bis(4-methoxyphenyl)oxazol-2-yl]sulfanyl-N-cyclopropyl-acetamide] was run?
Answer: Its value is 1%.

Question: For CNC(=O)CSc1ncco1 [Compound A-59, N-methyl-2-oxazol-2-ylsulfanyl-acetamide], which “relative TRPM8 activation” value is on record?
Answer: Its value is 1%.

Question: OCCSc1nc(-c2ccccc2)c(-c2ccccc2)o1 [Compound A-60, 2-(4,5-diphenyloxazol-2-yl) sulfanylethanol] was tested. Which “relative TRPM8 activation” value did it give?
Answer: The value was 0%.

Question: With CCC(=O)CSc1nc(-c2ccccc2)c(-c2ccccc2)o1 [Compound A-61, 1-(4,5-diphenyloxazol-2-yl)sulfanylbutan-2-one] as the compound, how does the “relative TRPM8 activation” value read?
Answer: The value was 0%.

Question: Which “relative TRPM8 activation” value does the source give for CNCCc1nc(-c2ccccc2)c(-c2ccccc2)o1.Cl [Compound A-62, 2-(4,5-diphenyloxazol-2-yl)ethyl-methyl-ammonium; chloride] here?
Answer: The value was 0%.

Question: For COC(=O)NCCc1nc(-c2ccccc2)c(-c2ccccc2)o1 [Compound A-63, methyl N-[2-(4,5-diphenyloxazol-2-yl)ethyl]carbamate], which “relative TRPM8 activation” value is on record?
Answer: The value was −1%.

Question: With CNC(=O)CSc1ncc(-c2ccccc2)[nH]1 [Compound A-64] as the compound, how does the “relative TRPM8 activation” value read?
Answer: The value was −1%.

Question: How did the “relative TRPM8 activation” value turn out when CC(C)CNC(=O)CSc1nc(-c2ccccc2)c(-c2ccccc2)o1 [Compound A-65, 2-(4,5-diphenyloxazol-2-yl)sulfanyl-N-isobutyl-acetamide] was run?
Answer: Its value is −1%.

Question: O=C(CSc1ncco1)NC1CC1 [Compound A-66, N-cyclopropyl-2-oxazol-2-ylsulfanyl-acetamide] was tested. Which “relative TRPM8 activation” value did it give?
Answer: The value was −1%.

Question: Which “relative TRPM8 activation” value does the source give for COCC(C)NC(=O)CSc1nc(-c2ccccc2)c(-c2ccccc2)o1 (stereo not drawn) [Compound A-67, 2-(4,5-diphenyloxazol-2-yl)sulfanyl-N-(2-methoxy-1-methyl-ethyl)acetamide] here?
Answer: Its value is −2%.

Question: Which “relative TRPM8 activation” value does the source give for CNC(=O)CSc1nc(-c2ccc(C)cc2)c(-c2ccc(C)cc2)o1 [Compound A-68, 2-[4,5-bis(p-tolyl)oxazol-2-yl]sulfanyl-N-methyl-acetamide] here?
Answer: The value was −2%.

Question: With CNC(=O)C(C)Sc1nc(-c2ccc(OC)cc2)c(-c2ccc(OC)cc2)o1 (stereo not drawn) [Compound A-69, 2-[4,5-bis(4-methoxyphenyl)oxazol-2-yl]sulfanyl-N-methyl-propanamide] as the compound, how does the “relative TRPM8 activation” value read?
Answer: The value was −2%.

Question: How did the “relative TRPM8 activation” value turn out when CCCCNC(=O)CSc1nc(-c2ccccc2)c(-c2ccccc2)o1 [Compound A-70, N-butyl-2-(4,5-diphenyloxazol-2-yl)sulfanyl-acetamide] was run?
Answer: Its value is −2%.

Question: With CN(C)c1nc(-c2ccccc2)c(-c2ccccc2)o1 [Compound A-71, N,N-dimethyl-4,5-diphenyl-oxazol-2-amine] as the compound, how does the “relative TRPM8 activation” value read?
Answer: Its value is −3%.

Question: For CNC(=O)CSc1nc(-c2ccc(OC)cc2)c(-c2ccc(OC)cc2)o1 [Compound A-72, 2-[4,5-bis(4-methoxyphenyl)oxazol-2-yl]sulfanyl-N-methyl-acetamide], which “relative TRPM8 activation” value is on record?
Answer: The value was −5%.

Question: With COC(=O)CCc1nc(-c2ccccc2)c(-c2ccccc2)o1 [Compound A-73, methyl 3-(4,5-diphenyloxazol-2-yl)propanoate] as the compound, how does the “relative TRPM8 activation” value read?
Answer: Its value is −5%.

Question: How did the “relative TRPM8 activation” value turn out when CC(Sc1nnc(-c2ccccc2)c(-c2ccccc2)n1)C(=O)NC1CCCC1 (stereo not drawn) [Compound B-22, N-cyclopentyl-2-[(5,6-diphenyl-1,2,4-triazin-3-yl)sulfanyl]propanamide] was run?
Answer: Its value is 87%.

Question: How did the “relative TRPM8 activation” value turn out when CN(C)C(=O)CSc1cnc(-c2ccccc2)c(-c2ccccc2)n1 [Compound B-23, 2-(5,6-diphenylpyrazin-2-yl)sulfanyl-N,N-dimethyl-acetamide] was run?
Answer: Its value is 73%.

Question: O=C(CSc1cnc(-c2ccccc2)c(-c2ccccc2)n1)NC1CC1 [Compound B-24, N-cyclopropyl-2-(5,6-diphenylpyrazin-2-yl)sulfanyl-acetamide] was tested. Which “relative TRPM8 activation” value did it give?
Answer: Its value is 68%.

Question: For CC(C)C(=O)CSc1nnc(-c2ccccc2)c(-c2ccccc2)n1 [Compound B-25, 1-[(5,6-diphenyl-1,2,4-triazin-3-yl)sulfanyl]-3-methyl-butan-2-one], which “relative TRPM8 activation” value is on record?
Answer: The value was 57%.

Question: How did the “relative TRPM8 activation” value turn out when CNC(=O)CCSc1nnc(-c2ccccc2)c(-c2ccccc2)n1 [Compound B-26, 3-[(5,6-diphenyl-1,2,4-triazin-3-yl)sulfanyl]-N-methyl-propanamide] was run?
Answer: Its value is 56%.

Question: How did the “relative TRPM8 activation” value turn out when CN(C)C(=O)CSc1nnc(-c2ccccc2)c(-c2ccccc2)n1 [Compound B-27, 2-[(5,6-diphenyl-1,2,4-triazin-3-yl)sulfanyl]-N,N-dimethyl-acetamide] was run?
Answer: Its value is 56%.

Question: CC(Sc1nnc(-c2ccccc2)c(-c2ccccc2)n1)C(=O)NCc1ccco1 (stereo not drawn) [Compound B-28, 2-[(5,6-diphenyl-1,2,4-triazin-3-yl)sulfanyl]-N-(2-furylmethyl)propanamide] was tested. Which “relative TRPM8 activation” value did it give?
Answer: Its value is 53%.

Question: CCC(=O)C(C)Sc1nnc(-c2ccccc2)c(-c2ccccc2)n1 (stereo not drawn) [Compound B-29, 2-[(5,6-diphenyl-1,2,4-triazin-3-yl)sulfanyl]pentan-3-one] was tested. Which “relative TRPM8 activation” value did it give?
Answer: Its value is 42%.

Same assay, conditions: TRPM8 activation, HEK293-TRPM8 cells, 6 to 10 concentrations, logistic curve fitting; read-out: EC50 value

Question: How did the EC50 turn out when CCC(Sc1nnc(-c2ccccc2)c(-c2ccccc2)n1)C(=O)NC (stereo not drawn) [Compound B-03, 2-[(5,6-diphenyl-1,2,4-triazin-3-yl)sulfanyl]-N-methyl-butanamide] was run?
Answer: Its EC50 is ≤ 1000 nM.

Question: CNC(=O)CSc1cnc(-c2ccccc2)c(-c2ccccc2)n1 [Compound B-04, 2-(5,6-diphenylpyrazin-2-yl)sulfanyl-N-methyl-acetamide] was tested. Which EC50 did it give?
Answer: The EC50 was ≤ 1000 nM.

Question: Which EC50 does the source give for CCC(Sc1nnc(-c2ccccc2)c(-c2ccccc2)n1)C(=O)N(C)C (stereo not drawn) [Compound B-05, 2-[(5,6-diphenyl-1,2,4-triazin-3-yl)sulfanyl]-N,N-dimethyl-butanamide] here?
Answer: The EC50 was ≤ 1000 nM.

Same assay, conditions: Table 5; HEK293-TRPM8 cells; read-out: TRPM8 EC50

Question: Which EC50 does the source give for CCC(Sc1nnc(-c2ccccc2)c(-c2ccccc2)n1)C(=O)NC (stereo not drawn) [Compound B-03, 2-[(5,6-diphenyl-1,2,4-triazin-3-yl)sulfanyl]-N-methyl-butanamide] here?
Answer: The EC50 was 70 nM.

Question: Which EC50 does the source give for CNC(=O)CSc1cnc(-c2ccccc2)c(-c2ccccc2)n1 [Compound B-04, 2-(5,6-diphenylpyrazin-2-yl)sulfanyl-N-methyl-acetamide] here?
Answer: Its EC50 is 370 nM.

Question: Which EC50 does the source give for CCC(Sc1nnc(-c2ccccc2)c(-c2ccccc2)n1)C(=O)N(C)C (stereo not drawn) [Compound B-05, 2-[(5,6-diphenyl-1,2,4-triazin-3-yl)sulfanyl]-N,N-dimethyl-butanamide] here?
Answer: The EC50 was 100 nM.

Question: How did the EC50 turn out when CC(Sc1nnc(-c2ccccc2)c(-c2ccccc2)n1)C(=O)N1CCCC1 (stereo not drawn) [Compound B-18, 2-[(5,6-diphenyl-1,2,4-triazin-3-yl)sulfanyl]-1-pyrrolidin-1-yl-propan-1-one] was run?
Answer: Its EC50 is 5360 nM.

Same assay, conditions: Table 7; HEK293-TRPM8 cells; read-out: TRPM8 EC50

Question: Which EC50 does the source give for CCC(Sc1nnc(-c2ccccc2)c(-c2ccccc2)n1)C(=O)NC (stereo not drawn) [Compound B-03, 2-[(5,6-diphenyl-1,2,4-triazin-3-yl)sulfanyl]-N-methyl-butanamide] here?
Answer: Its EC50 is 70 nM.

Question: With CNC(=O)CSc1cnc(-c2ccccc2)c(-c2ccccc2)n1 [Compound B-04, 2-(5,6-diphenylpyrazin-2-yl)sulfanyl-N-methyl-acetamide] as the compound, how does the EC50 read?
Answer: Its EC50 is 370 nM.

Question: With CCC(Sc1nnc(-c2ccccc2)c(-c2ccccc2)n1)C(=O)N(C)C (stereo not drawn) [Compound B-05, 2-[(5,6-diphenyl-1,2,4-triazin-3-yl)sulfanyl]-N,N-dimethyl-butanamide] as the compound, how does the EC50 read?
Answer: The EC50 was 100 nM.

Question: Which EC50 does the source give for CC(Sc1nnc(-c2ccccc2)c(-c2ccccc2)n1)C(=O)N1CCCC1 (stereo not drawn) [Compound B-18, 2-[(5,6-diphenyl-1,2,4-triazin-3-yl)sulfanyl]-1-pyrrolidin-1-yl-propan-1-one] here?
Answer: The EC50 was 5360 nM.
